Source: patent publication US20240024302A1, “SOLUBLE EPOXIDE HYDROLASE (sEH) INHIBITORS AND DUAL COX/sEH INHIBITORS FOR THE TREATMENT OF ARRHYTHMOGENIC CARDIOMYOPATHY” (BETH ISRAEL DEACONESS MEDICAL CENTER, INC., priority 2020, published 2024)
In brackets after ≈: the same amount, converted by molar mass. Entries after “also recorded” stand apart in the source; their conditions may differ.

Experiments:
Experimental LogP = assay type: physicochemical
[1] = Rat PK, single oral gavage; assay type: in vivo; conditions: single dose 0.1 mg/kg
[2] = Mouse PK, single oral gavage; conditions: mouse, in vivo, po, 0.3 mg/kg, single dose 0.3 mg/kg; for AUC: Mouse AUC, 20% PEG400 in oleic acid-rich triglyceride
[3] = tested on: Neonatal rat ventricular myocytes (NRVM) expressing 2157del2 JUP; test: Immunofluorescence of junction proteins in ACM in vitro model; assay type: cell-based; conditions: for Loss of cell surface signal for Cx43 / Redistribution of junctional plakoglobin to intracellular/nuclear sites: 500 nM 2.017 or 1 μM 1.045, 24 hours; for ACM disease features overall (plakoglobin, Cx43, pRelA/p65, TUNEL), sEH inhibitors / ACM disease features/readouts overall, EET and EEZE: Jup2157del2 myocytes; for ACM disease features overall (plakoglobin, Cx43, pRelA/p65, TUNEL), sEH inhibitors: 2.017 500 nM, 1.045 1 μM, concentration not given for 1,002 and 3.023; for ACM disease features/readouts overall, EET and EEZE: 10 μM
Method: Neonatal rat ventricular myocytes (NRVM) were isolated from the ventricles of 1-day-old Wistar rat pups and plated on collagen-coated plastic chambers. 24 hours following seeding, the cells were transfected with an adenoviral construct expressing a mutant form of plakoglobin known to cause arrhythmogenic cardiomyopathy in patients (2157del2 JUP). […] Non-transfected cultures and cultures transfected with the adenoviral construct only served as negative and positive controls, respectively.
(§1) Immunofluorescence: Cell cultures were fixed with 4% paraformaldehyde and prepared for immunofluorescence analysis as previously described (1). […] Cy3-conjugated goat anti-mouse and anti-rabbit antibodies (Jackson Immunolabs) were used as secondary antibodies and DAPI was used to visualize the nuclei. Immunostained preparations were visualized by confocal microscopy and changes in spatial distribution of signal were assessed qualitatively.

[4] = tested on: Neonatal rat ventricular myocytes (NRVM) expressing 2157del2 JUP; test: TUNEL apoptosis assay in ACM in vitro model; assay type: cell-based; conditions: 500 nM 2.017 or 1 μM 1.045, 24 hours
Method: (§2) Neonatal rat ventricular myocytes (NRVM) were isolated from the ventricles of 1-day-old Wistar rat pups and plated on collagen-coated plastic chambers. 24 hours following seeding, the cells were transfected with an adenoviral construct expressing a mutant form of plakoglobin known to cause arrhythmogenic cardiomyopathy in patients (2157del2 JUP). 24 hours following transfection, the cells were treated with 500 nM 2.017 or 1 μM 1.045 for an additional 24 hours. Non-transfected cultures and cultures transfected with the adenoviral construct only served as negative and positive controls, respectively.
Apoptosis assay: Terminal deoxynucleotidyl transferase dUTP nick end labelling (TUNEL) was performed on NRVM cultures following the manufacturer's instructions (Millipore, S7110). DNA strand breaks generated in apoptotic cells were labelled with fluorescein (green) and nuclei were visualized with DAPI. The number of TUNEL-positive nuclei was counted in 5 randomly selected high-power fields in each culture well and expressed as a percent of total nuclei visualized with DAPI.

NFκB = test: Nuclear pRelA/p65 immunofluorescence (NFκB activation) in ACM in vitro model; assay type: cell-based, rat; conditions: 500 nM 2.017 or 1 μM 1.045, 24 hours
Method: as §2, §1

Dsg2^mut/mut mice = test: LV function in Dsg2mut/mut mice; assay type: in vivo, mouse; conditions: 3 mg/kg/day for 20 days, vs. untreated mice
[5] = target: T1, soluble epoxide hydrolase (sEH) (Homo sapiens, UniProt P34913); test: Human in vitro Ki and dissociation t1/2 from the enzyme (fluorescence signals); assay type: binding; conditions: for Human In vitro t1/2 (time for half of the drug being dissociated from the enzyme): based on fluorescence signals
T1 sequence (P34913 1-555): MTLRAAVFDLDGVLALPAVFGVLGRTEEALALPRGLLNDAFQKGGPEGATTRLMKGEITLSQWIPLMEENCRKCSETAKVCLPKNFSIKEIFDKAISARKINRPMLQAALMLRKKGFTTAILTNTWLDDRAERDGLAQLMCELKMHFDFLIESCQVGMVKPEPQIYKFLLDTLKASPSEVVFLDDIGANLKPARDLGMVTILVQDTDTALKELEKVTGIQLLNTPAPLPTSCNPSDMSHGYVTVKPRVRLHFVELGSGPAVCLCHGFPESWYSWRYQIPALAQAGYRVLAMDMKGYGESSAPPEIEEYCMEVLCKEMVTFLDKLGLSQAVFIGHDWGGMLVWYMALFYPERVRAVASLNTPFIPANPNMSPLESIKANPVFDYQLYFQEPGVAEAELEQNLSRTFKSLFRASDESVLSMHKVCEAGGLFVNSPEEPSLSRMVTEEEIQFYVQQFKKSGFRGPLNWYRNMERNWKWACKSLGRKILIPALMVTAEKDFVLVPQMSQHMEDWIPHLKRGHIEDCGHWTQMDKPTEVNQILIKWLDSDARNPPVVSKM

Solubility in buffer = assay type: physicochemical; conditions: aqueous buffer; Sodium Phosphate Buffer at pH 7.4

SMILES: O=C(Nc1ccc(C(F)(F)F)c(F)c1)NC1CCN(C(=O)[C@@H]2CCOC2)CC1 (stereo in doubt)
- Exp. LogP (Experimental LogP): 3.41

SMILES: CC[C@H](C)C(=O)N1CCC(NC(=O)Nc2ccc(OC(F)(F)F)c(F)c2)CC1 [drawing 88]
- Exp. LogP (Experimental LogP): 5.98
- Cmax [1]: 42 ± 6 nM
- Rat T1/2 [1]: 1.6 ± 0.2 h
- Rat Tmax [1]: 1.8 ± 0.1 h
- Rat AUC ([1]; PEG 300): 0.208 ± 0.025 µM·h
- AUC ([2]; oral gavage): 0.0998 ± 0.0001 µM·h
- Cmax ([2]; Mouse Cmax, oral gavage): 737 nM
- half-life ([2]; Mouse T1/2, oral gavage): 117 h
- Tmax ([2]; Mouse Tmax, oral gavage): 1.6 h

SMILES: CCC(=O)N1CCC(NC(=O)Nc2ccc(OC(F)(F)F)cc2)CC1 [Compound 1.045]
- Loss of cell surface signal for Cx43 [3]: reduced loss of cell surface signal for Cx43
- Redistribution of junctional plakoglobin to intracellular/nuclear sites [3]: prevented redistribution of junctional plakoglobin; also recorded: prevented translocation of junctional plakoglobin
- ACM disease features overall (plakoglobin, Cx43, pRelA/p65, TUNEL), sEH inhibitors [3]: reversed
- Myocyte apoptosis (TUNEL+ nuclei) [4]: greatly diminished myocyte apoptosis
- Activation of NFκB (nuclear signal for pRelA/p65) (NFκB): prevented activation of NFκB; also recorded: blocked activation of NFκB
- LV function (Dsg2^mut/mut mice): marked recovery of LV function; also recorded: recovered LV function

SMILES: CCCCCC1OC1C/C=C\C/C=C\C/C=C\CCCC(=O)O (stereo not drawn) [14,15-EET, reference compound]
- ACM disease features/readouts overall, EET and EEZE [3]: produced potent salutary effects; also recorded: reversed

SMILES: CC[C@H](C)C(=O)N1CCC(NC(=O)Nc2ccc(C(F)(F)F)nc2)CC1
- Human In vitro t1/2 (time for half of the drug being dissociated from the enzyme) [5]: 0.0617 h

SMILES: CCCCCC1OC1CCCCCCC/C=C\CCCC(=O)O (stereo not drawn) [14,15-EE-5(Z)E, reference compound]
- ACM disease features/readouts overall, EET and EEZE [3]: intensified ACM disease readouts; also recorded: intensifies these ACM disease features; also recorded: intensified these ACM features

SMILES: NS(=O)(=O)c1ccc(-n2nc(CCCNC(=O)Nc3ccc(C(F)(F)F)cc3)cc2-c2ccccc2)cc1 [Compound 2.017]
- Loss of cell surface signal for Cx43 [3]: reduced loss of cell surface signal for Cx43
- Redistribution of junctional plakoglobin to intracellular/nuclear sites [3]: prevented redistribution of junctional plakoglobin; also recorded: prevented translocation of junctional plakoglobin
- ACM disease features overall (plakoglobin, Cx43, pRelA/p65, TUNEL), sEH inhibitors [3]: reversed
- Myocyte apoptosis (TUNEL+ nuclei) [4]: greatly diminished myocyte apoptosis
- Activation of NFκB (nuclear signal for pRelA/p65) (NFκB): prevented activation of NFκB; also recorded: blocked activation of NFκB

SMILES: CC[C@H](C)C(=O)N1CCC(NC(=O)Nc2ccc(OC(F)(F)F)c(Cl)c2)CC1
- Human In vitro t1/2 (time for half of the drug being dissociated from the enzyme) [5]: 0.167 h
- Cmax ([1]; rat, in vivo): 42 ± 6 nM
- Tmax ([1]; rat, in vivo): 2.1 ± 0.3 h
- AUC ([1]; rat, in vivo, PEG 300): 0.241 ± 0.012 µM·h
- half-life ([1]; rat, in vivo, read-out: Rat T1/2 (converted)): 2.9 ± 0.5 h
- AUC ([2]; oral gavage): ≥ 0.0999 µM·h

SMILES: CC[C@H](C)C(=O)N1CCC(CC(=O)Nc2ccc(OC(F)(F)F)cc2F)CC1
- solubility (Solubility in buffer): 2.6 µg/mL (≈ 6.43 µM)
- logP (Experimental LogP; read-out: Exp. LogP): 6
- Ki [5]: 4.72 nM
- Human In vitro t1/2 (time for half of the drug being dissociated from the enzyme) [5]: 0.0783 h

SMILES: O=C(Nc1ccc(OC(F)(F)F)cc1)N[C@H]1CC[C@H](Oc2ccc(C(=O)O)cc2)CC1 [Compound 3.023]
- ACM disease features overall (plakoglobin, Cx43, pRelA/p65, TUNEL), sEH inhibitors [3]: showed similar results

SMILES: CC[C@H](C)C(=O)N1CCC(NC(=O)Nc2ccc(OC(F)(F)F)c(F)c2)CC1 [Compound 1.002]
- ACM disease features overall (plakoglobin, Cx43, pRelA/p65, TUNEL), sEH inhibitors [3]: showed similar results
